Tests used:
5-HT1D = 5-HT1D radioligand binding assay (3H-5HT, crude pig striatal membranes); conditions: for % inhibition of binding, 5-HT1D: mean of triplicates
Method: (§1) 5-HT1D radioligand binding assay was carried out according to Heuring and Peroutka (Heuring, R. E., and Peroutka, S. J., J. Neurosci., 7:894-903, 1987) with slight modifications as follows. Polypropylene tubes containing ^3 H-5HT (2 nM), cyanopindolol (100 nM), mesulergine (100 nM) and crude pig striatal membranes (10 mg wet weight per tube) in a final assay volume of 1 ml were used. All reagents and tissues were made up in […] Tris. HCl containing 0.1% ascorbate, 10 μM pargyline and 4 mM CaCl2 (pH 7.7 at room temperature). 5-HT (10 μM) was used to define non-specific binding. The incubation was initiated by the addition of membranes and carried out for 30 minutes at 37° C. Following incubation, membranes were rapidly filtered under vacuum through Whatmann GF/B filters using a Brandel Cell Harvester, followed by 2×3 ml washes with 50 mM Tris. HCl (pH 7.7 at room temperature). Bound radioactivity was determined by liquid scintillation spectrometry. 5-HT1A and 5-HT2 radioligand binding assays were performed according to Hall, et al., J. Neurochem., 44, 1685-1696, 1985 and Titeler, et al., Eur. J. Pharmacol., 117, 145-146, 1987, respectively.

5-HT1A = target: T1, 5-HT1A (Rattus norvegicus, UniProt P19327); test: 5-HT1A radioligand binding assay
T1 construct: from tissue
T1 sequence (P19327 1-422): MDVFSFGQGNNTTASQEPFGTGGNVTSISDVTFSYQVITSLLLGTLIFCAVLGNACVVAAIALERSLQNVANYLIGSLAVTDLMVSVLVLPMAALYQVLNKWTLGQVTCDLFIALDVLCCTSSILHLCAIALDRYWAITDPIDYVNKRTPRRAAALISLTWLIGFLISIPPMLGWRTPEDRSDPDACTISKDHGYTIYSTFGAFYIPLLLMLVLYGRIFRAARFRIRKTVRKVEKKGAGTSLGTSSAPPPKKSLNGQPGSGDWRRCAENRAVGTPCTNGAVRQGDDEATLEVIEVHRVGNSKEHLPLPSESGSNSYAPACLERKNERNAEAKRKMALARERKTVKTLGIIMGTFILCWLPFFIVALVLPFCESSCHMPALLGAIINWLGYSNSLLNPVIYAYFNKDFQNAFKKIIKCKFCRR
Method: as §1

5-HT2 = target: T2, 5-HT2 (Rattus norvegicus, UniProt P14842); test: 5-HT2 radioligand binding assay; conditions: mean of triplicates
T2 construct: from tissue; host or cells: rat cortical membranes (inferred from the cited Titeler et al)
Method: as §1

T2 sequence (P14842 whole entry): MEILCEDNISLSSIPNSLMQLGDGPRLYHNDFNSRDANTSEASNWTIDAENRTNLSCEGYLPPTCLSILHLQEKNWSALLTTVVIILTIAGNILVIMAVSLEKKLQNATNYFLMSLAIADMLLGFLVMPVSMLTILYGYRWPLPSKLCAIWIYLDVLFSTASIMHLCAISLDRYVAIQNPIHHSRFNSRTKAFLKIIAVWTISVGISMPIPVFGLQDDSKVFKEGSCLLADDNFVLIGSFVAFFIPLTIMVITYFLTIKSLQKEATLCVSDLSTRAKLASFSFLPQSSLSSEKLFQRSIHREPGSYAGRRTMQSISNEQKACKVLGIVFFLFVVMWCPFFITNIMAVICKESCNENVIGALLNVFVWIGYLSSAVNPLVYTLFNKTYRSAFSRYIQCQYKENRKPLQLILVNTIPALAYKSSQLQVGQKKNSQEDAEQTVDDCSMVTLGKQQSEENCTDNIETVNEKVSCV

SMILES: C=CC(C)(C)n1cc(CN(C)C)c2ccccc21 [Compound I, 1-(1,1-dimethylallyl)-3-dimethylaminomethylindole]
- % inhibition of binding, 5-HT1D (5-HT1D; 4.1 μM): 44%
- % inhibition of binding, 5-HT1D (5-HT1D; 41 μM): 81%
- inhibition at 4.1 µM (5-HT1A; 4.1 μM, mean of triplicates): 20%
- inhibition at 41 µM (5-HT1A; 41 μM, mean of triplicates): 62%
- affinity for 5-HT1A relative to 5-HT1D and 5-HT2 (5-HT1A; 5-HT1A versus 5-HT1D and 5-HT2): less affinity for 5-HT1A than for 5-HT1D and 5-HT2 receptor subtypes
- inhibition at 4.1 µM (5-HT2; 4.1 μM): 42%
- inhibition at 41 µM (5-HT2; 41 μM): 86%

SMILES: CNS(=O)(=O)Cc1ccc2[nH]cc(CCN(C)C)c2c1 [sumatriptan, reference compound]
- rank order of affinity for these subtypes (5-HT1D; 5-HT1D, 5-HT1A, 5-HT2, for comparison): 5-HT1D >5-HT1A >5-HT2
- pIC50, 5-HT1D (5-HT1D; for comparison): 7.7
- IC50 (5-HT1A): 501 nM

Source: patent US5233050A, “Antimigraine alkyl indole” (Merck & Co., Inc., priority 1992, dated 1993)
